# Key:
# [1] = system: NCI-H841 (Small Cell Lung Carcinoma); test: combination Emax (second highest fraction inhibited in the dose matrix, 72 h); higher = more inhibition; extreme values may be limits of the assay
# Outline: (§1)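 Bliss excess equals the observed combination effect minus the expected value EA + EB − EA·EB, where EA and EB are the effects of each agent alone. Combination Emax is the second-highest inhibition within the matrix. Inhibition was scaled from CellTiter-Glo 2.0 luminescence, with 0 set by vehicle wells and 1 by blank wells, after 72 hours of two-drug dosing of cells plated in 1536-well plates.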
# MKN1 (Gastric Carcinoma) [2] = test: as above
# Outline: as §1
# [3] = system: Jurkat (T-Lymphoblastic Leukemia); test: Bliss excess, mean over the matrix (fraction); higher = more synergy
# Outline: as §1
# [4] = system: UACC-812 (Breast Carcinoma); test: as above
# Outline: as §1
# [5] = system: NCI-H841 (Small Cell Lung Carcinoma); test: as above
# Outline: as §1
# A204 (Rhabdomyosarcoma) = test: as above
# Outline: as §1
# [6] = system: JHH-2 (Hepatocellular Carcinoma); test: as above
# Outline: as §1
# MKN1 (Gastric Carcinoma) [7] = test: as above
# Outline: as §1
# WM1552C (Melanoma) = test: as above
# Outline: as §1
# [8] = system: DU-4475 (Breast Carcinoma); test: as above
# Outline: as §1
# [9] = system: GA-10 (Burkitt's Lymphoma); test: as above
# Outline: as §1
# [10] = system: JVM-2 (B-Cell Non-Hodgkin's Lymphoma); test: as above
# Outline: as §1
# [11] = system: HCC1395 (Breast Carcinoma); test: as above
# Outline: as §1
# [12] = system: MHH-ES-1 (Ewing's Sarcoma); test: as above
# Outline: as §1
Structure (SMILES),combination Emax [1],combination Emax (MKN1 (Gastric Carcinoma) [2]),Bliss excess [3],Bliss excess [4],Bliss excess [5],Bliss excess (A204 (Rhabdomyosarcoma)),Bliss excess [6],Bliss excess (MKN1 (Gastric Carcinoma) [7]),Bliss excess (WM1552C (Melanoma)),Bliss excess [8],Bliss excess [9],Bliss excess [10],Bliss excess [11],Bliss excess [12]
"COc1nnc2ccc(N3CCC(c4ccc(OCCN5CCN(C)C(=O)[C@H]5C)cc4)CC3)nn12 [AZD5153] + CCN(CCO)CCCOc1ccc2c(Nc3cc(CC(=O)Nc4cccc(F)c4)[nH]n3)ncnc2c1 [AZD2811] (first compound max 1 µM, 7x7, partner max 1 µM)",0.428,0.807,0.0305,-0.0742,0.0001,-0.0849,-0.0496,-0.0033,-0.0615,0.0934,-0.122,-0.0498,-0.0005,-0.0345
"COc1nnc2ccc(N3CCC(c4ccc(OCCN5CCN(C)C(=O)[C@H]5C)cc4)CC3)nn12 [AZD5153] + C=CCn1c(=O)c2cnc(Nc3ccc(N4CCN(C)CC4)cc3)nc2n1-c1cccc(C(C)(C)O)n1 [AZD1775] (first compound max 1 µM, partner max 1 µM)",0.503,0.926,-0.0038,-0.0066,-0.0299,-0.0887,-0.1,0.0363,-0.0776,0.0311,-0.0367,-0.0959,-0.113,-0.0662
"C=CCn1c(=O)c2cnc(Nc3ccc(N4CCN(C)CC4)cc3)nc2n1-c1cccc(C(C)(C)O)n1 [AZD1775] + C1CN(CCC1(C(=O)N[C@@H](CCO)C2=CC=C(C=C2)Cl)N)C3=NC=NC4=C3C=CN4 [Capivasertib] (first compound max 3 µM, partner max 3 µM)",0.676,0.821,0.185,-0.0007,-0.0788,-0.0131,-0.122,-0.0236,0.0306,0.0203,0.0431,-0.0591,-0.0085,-0.034
"Cn1cnc2c(F)c(Nc3ccc(Br)cc3Cl)c(C(=O)NOCCO)cc21 [Selumetinib] + CC(C)n1c(=O)n(C)c2cnc3cc(F)c(-c4ccc(OCCCN5CCCCC5)nc4)cc3c21 [AZD1390] (first compound max 10 µM, 7x7, partner max 0.3 µM)",0.0728,0.182,-0.0321,-0.0436,-0.0529,-0.0567,-0.0357,-0.0173,-0.0102,-0.0112,-0.0227,0.0102,-0.0327,-0.0328
"CC(=O)c1c(C)c2cnc(Nc3ccc(N4CCNCC4)cn3)nc2n(C2CCCC2)c1=O [Palbociclib] + CC1(C)CCC(CN2CCN(c3ccc(C(=O)NS(=O)(=O)c4ccc(NCC5CCOCC5)c([N+](=O)[O-])c4)c(Oc4cnc5[nH]ccc5c4)c3)CC2)=C(c2ccc(Cl)cc2)C1 [Venetoclax] (first compound max 10 µM, 7x7, partner max 1 µM)",0.0903,0.249,0.0157,,-0.0463,0.0194,0.0031,-0.0394,-0.0334,-0.0162,-0.0895,-0.0273,-0.0472,0.0193
"Cn1cnc2c(F)c(Nc3ccc(Br)cc3Cl)c(C(=O)NOCCO)cc21 [Selumetinib] + C=CCn1c(=O)c2cnc(Nc3ccc(N4CCN(C)CC4)cc3)nc2n1-c1cccc(C(C)(C)O)n1 [AZD1775] (first compound max 10 µM, partner max 1 µM)",0.217,0.782,-0.0309,-0.0425,-0.0536,-0.0511,-0.0571,-0.0326,-0.0674,-0.0196,-0.0321,-0.071,-0.0333,-0.0733
"COc1nnc2ccc(N3CCC(c4ccc(OCCN5CCN(C)C(=O)[C@H]5C)cc4)CC3)nn12 [AZD5153] + C[C@@H]1COCCN1C2=NC(=NC(=C2)C3(CC3)[S@](=N)(=O)C)C4=C5C=CNC5=NC=C4 [AZD6738] (first compound max 1 µM, 7x7, partner max 10 µM)",0.73,0.936,0.0601,0.0371,0.0202,0.042,-0.0066,0.0483,-0.0783,0.0294,-0.0177,-0.061,-0.0241,0.0074
"NC1(C(=O)N[C@@H](CCO)c2ccc(Cl)cc2)CCN(c2ncnc3[nH]ccc23)CC1 [Capivasertib] + C[C@@H]1COCCN1C2=NC(=NC(=C2)C3(CC3)[S@](=N)(=O)C)C4=C5C=CNC5=NC=C4 [AZD6738] (first compound max 10 µM, 7x7, partner max 10 µM)",0.457,0.807,-0.0403,,-0.0622,-0.0201,-0.0651,-0.0639,-0.062,0.0226,-0.0303,-0.0607,-0.0687,-0.0259
"NC1(C(=O)N[C@@H](CCO)c2ccc(Cl)cc2)CCN(c2ncnc3[nH]ccc23)CC1 [Capivasertib] + CC(=O)c1c(C)c2cnc(Nc3ccc(N4CCNCC4)cn3)nc2n(C2CCCC2)c1=O [Palbociclib] (first compound max 10 µM, 7x7, partner max 10 µM)",0.293,0.463,0.0314,,-0.0365,-0.0496,-0.0028,0.0106,0.0025,-0.0335,-0.0029,-0.036,0.0116,0.0257
"CC(=O)c1c(C)c2cnc(Nc3ccc(N4CCNCC4)cn3)nc2n(C2CCCC2)c1=O [Palbociclib] + Cn1cnc2c(F)c(Nc3ccc(Br)cc3Cl)c(C(=O)NOCCO)cc21 [Selumetinib] (first compound max 10 µM, 7x7, partner max 10 µM)",0.16,0.332,-0.0297,,-0.0352,-0.0261,0.0347,-0.0001,-0.0078,-0.0446,-0.0193,0.0271,-0.0529,-0.0061
"NC1(C(=O)N[C@@H](CCO)c2ccc(Cl)cc2)CCN(c2ncnc3[nH]ccc23)CC1 [Capivasertib] + COc1nnc2ccc(N3CCC(c4ccc(OCCN5CCN(C)C(=O)[C@H]5C)cc4)CC3)nn12 [AZD5153] (first compound max 10 µM, 7x7, partner max 1 µM)",0.405,0.782,0.0593,,-0.0002,0.006,0.0064,0.0481,-0.0366,0.02,-0.0148,-0.0764,-0.0381,0.0467
"NC1(C(=O)N[C@@H](CCO)c2ccc(Cl)cc2)CCN(c2ncnc3[nH]ccc23)CC1 [Capivasertib] + Cn1cnc2c(F)c(Nc3ccc(Br)cc3Cl)c(C(=O)NOCCO)cc21 [Selumetinib] (first compound max 10 µM, 7x7, partner max 10 µM)",0.308,0.552,0.009,,0.0115,0.0013,0.016,0.081,0.036,0.0066,-0.0442,0.0533,0.033,0.0114
"CS(=O)(=O)CCNCc1ccc(-c2ccc3ncnc(Nc4ccc(OCc5cccc(F)c5)c(Cl)c4)c3c2)o1 [Lapatinib] + C[C@@H](Oc1cc(-c2cnn(C3CCNCC3)c2)cnc1N)c1c(Cl)ccc(F)c1Cl [Crizotinib] (first compound max 10 µM, 7x7, partner max 10 µM)",0.356,0.922,0.0331,,-0.0378,-0.0279,-0.0831,0.0038,-0.0534,-0.0077,-0.0218,-0.0131,-0.0724,-0.0333
"COc1nnc2ccc(N3CCC(c4ccc(OCCN5CCN(C)C(=O)[C@H]5C)cc4)CC3)nn12 [AZD5153] + Cc1c2c(nn1C)CSCc1cc(n(C)n1)CSc1cc(c3ccccc3c1)OCCCc1c(C(=O)O)n(C)c3c-2c(Cl)ccc13 [AZD5991] (first compound max 1 µM, 7x7, partner max 1 µM)",0.565,0.866,0.0006,0.0365,-0.0119,-0.0116,-0.119,0.0194,-0.0694,0.0617,-0.0598,-0.0404,-0.0112,-0.0049
"Cn1cnc2c(F)c(Nc3ccc(Br)cc3Cl)c(C(=O)NOCCO)cc21 [Selumetinib] + C[C@@H]1COCCN1C2=NC(=NC(=C2)C3(CC3)[S@](=N)(=O)C)C4=C5C=CNC5=NC=C4 [AZD6738] (first compound max 10 µM, 7x7, partner max 10 µM)",0.389,0.782,-0.0227,-0.0397,-0.0212,-0.0363,0.0264,0.0183,-0.0591,-0.0103,-0.0046,-0.0344,-0.0128,-0.046
"NC1(C(=O)N[C@@H](CCO)c2ccc(Cl)cc2)CCN(c2ncnc3[nH]ccc23)CC1 [Capivasertib] + CC(C)n1c(=O)n(C)c2cnc3cc(F)c(-c4ccc(OCCCN5CCCCC5)nc4)cc3c21 [AZD1390] (first compound max 10 µM, 7x7, partner max 0.3 µM)",0.273,0.39,-0.047,,-0.0909,-0.0575,-0.0449,-0.0379,-0.0474,0.0233,-0.028,-0.0662,0.0154,-0.0515
"NC1(C(=O)N[C@@H](CCO)c2ccc(Cl)cc2)CCN(c2ncnc3[nH]ccc23)CC1 [Capivasertib] + CCN(CCO)CCCOc1ccc2c(Nc3cc(CC(=O)Nc4cccc(F)c4)[nH]n3)ncnc2c1 [AZD2811] (first compound max 10 µM, 7x7, partner max 1 µM)",0.426,0.531,-0.0289,,-0.0415,-0.0058,-0.0437,-0.0067,-0.0378,0.0487,-0.111,-0.142,0.001,-0.0132
"CC(=O)c1c(C)c2cnc(Nc3ccc(N4CCNCC4)cn3)nc2n(C2CCCC2)c1=O [Palbociclib] + Cc1c2c(nn1C)CSCc1cc(n(C)n1)CSc1cc(c3ccccc3c1)OCCCc1c(C(=O)O)n(C)c3c-2c(Cl)ccc13 [AZD5991] (first compound max 10 µM, 7x7, partner max 1 µM)",0.289,0.313,-0.083,,-0.0265,-0.026,-0.0475,-0.0238,-0.0565,0.0238,-0.0211,-0.0206,-0.0403,-0.008
